Measured values taken from patent US20080058330A1, “Compounds and Combinations Thereof for Inhibiting Beta-Amyloid Production and Methods of Use Thereof” (Roskamp Research LLC, priority 2006, published 2008).

Assays:
7W WT APP751 CHO cells [1] = assay: Screening of NF-kB activation inhibitors, Aβ1-40 and Aβ1-42 ELISA (Example 3); type: cell-based, Chinese hamster; details: 24 hours (FIG. 6)
Description: Each compound was dissolved in DMSO. 7W WT APP751 CHO cells overexpressing APP751 were plated into 96-well culture plates in 200 μL of culture medium. Each compound from the library was added to confluent cells to a final concentration of 500 nM, 1 μM, 5 μM, 10 μM and/or 30 μM. After 24 hours of treatment, culture medium was collected and dissolved 10-fold and 2-fold for measuring the level of Aβ1-40 and Aβ1-42, respectively. Aβ1-40 and Aβ1-42 were determined using commercially available ELISAs (Biosource, CA), following the recommendations of the manufacturer.

7W WT APP751 CHO cells [2] = assay: Screening of dihydropyridine compounds (Maybridge), Aβ1-40 and Aβ1-42 ELISA (Example 2); type: cell-based, Chinese hamster; details: 30 μM, 24 hours (FIG. 5A, 5B)
Description: Dihydropyridine compounds were obtained from Maybridge (England). Each compound was dissolved in DMSO. 7W WT APP751 CHO cells overexpressing APP751 were plated into 96-well culture plates in 200 μL of culture medium. Each compound from the library was added to confluent cells to a final concentration of 30 μM. After 24 hours of treatment, culture medium was collected and dissolved 10-fold and 2-fold for measuring the level of Aβ1-40 and Aβ1-42, respectively. Aβ1-40 and Aβ1-42 were determined using commercially available ELISAs (Biosource, CA), following the recommendations of the manufacturer.

Nc1ccc2ncnc(NCCc3ccc(Oc4ccccc4)cc3)c2c1 [6-amino-4-(4-phenoxyphenylethylamino)quinazoline]
significantly decreased: concentration of Aβ1-40 compared to controls (7W WT APP751 CHO cells [1]; 500 nM) | concentration of Aβ1-42 compared to controls (7W WT APP751 CHO cells [1]; 500 nM) | concentration of total β-amyloid compared to controls (7W WT APP751 CHO cells [1]; 500 nM) | concentration of Aβ1-40 compared to controls (7W WT APP751 CHO cells [1]; 5 μM) | concentration of Aβ1-42 compared to controls (7W WT APP751 CHO cells [1]; 5 μM) | concentration of total β-amyloid compared to controls (7W WT APP751 CHO cells [1]; 5 μM)

COC(=O)C1=C(C)NC(C)=C(C(=O)OCCCN2CCC(c3ccccc3)(c3ccccc3)CC2)[C@H]1c1cccc([N+](=O)[O-])c1.Cl [(S)-(+)-niguldipine]
significantly decreased: concentration of Aβ1-40 compared to controls (7W WT APP751 CHO cells [1]; 1 μM) | concentration of Aβ1-42 compared to controls (7W WT APP751 CHO cells [1]; 1 μM) | concentration of total β-amyloid compared to controls (7W WT APP751 CHO cells [1]; 1 μM) | concentration of Aβ1-40 compared to controls (7W WT APP751 CHO cells [1]; 5 μM) | concentration of Aβ1-42 compared to controls (7W WT APP751 CHO cells [1]; 5 μM) | concentration of total β-amyloid compared to controls (7W WT APP751 CHO cells [1]; 5 μM) | concentration of Aβ1-40 compared to controls (7W WT APP751 CHO cells [1]; 30 μM) | concentration of Aβ1-42 compared to controls (7W WT APP751 CHO cells [1]; 30 μM) | concentration of total β-amyloid compared to controls (7W WT APP751 CHO cells [1]; 30 μM)

CCOC(=O)C1=C(C)NC(C)=C(C(=O)OCC)C1c1ccc(Cl)cc1 [BTB 14328, diethyl 4-(4-chlorophenyl)-2,6-dimethyl-1,4-dihydropyridine-3,5-dicarboxylate]
significantly decreased: concentration of Aβ1-40 compared to controls (7W WT APP751 CHO cells [2]) | concentration of Aβ1-42 compared to controls (7W WT APP751 CHO cells [2]) | concentration of total β-amyloid (Aβ1-40+Aβ1-42) compared to controls (7W WT APP751 CHO cells [2])

CCOC(=O)C1=C(C)NC(C)=C(C(=O)OCC)C1c1ccc(-c2cc(C(F)(F)F)cc(C(F)(F)F)c2)o1 [CD 04170, diethyl 4-{5-[3,5-di(trifluoromethyl)phenyl]-2-furyl}-2,6-dimethyl-1,4-dihydro-pyridine-3,5-dicarboxylate]
significantly decreased: concentration of Aβ1-40 compared to controls (7W WT APP751 CHO cells [2]) | concentration of Aβ1-42 compared to controls (7W WT APP751 CHO cells [2]) | concentration of total β-amyloid (Aβ1-40+Aβ1-42) compared to controls (7W WT APP751 CHO cells [2])

O=C1C=C(c2ccccc2)CN(C2CCCCC2)C1=O [HTS 01512, 1-cyclohexyl-5-phenyl-1,6-dihydro-2,3-pyridinedione]
significantly decreased: concentration of Aβ1-40 compared to controls (7W WT APP751 CHO cells [2]) | concentration of Aβ1-42 compared to controls (7W WT APP751 CHO cells [2]) | concentration of total β-amyloid (Aβ1-40+Aβ1-42) compared to controls (7W WT APP751 CHO cells [2])

N#Cc1c(-c2cn(-c3ccccc3)nc2-c2ccccc2)cc(-c2ccccc2)[nH]c1=O [HTS 07578, 4-(1,3-diphenyl-1H-pyrazol-4-yl)-2-oxo-6-phenyl-1,2-dihydro-3-pyridinecarbonitrile]
significantly decreased: concentration of Aβ1-40 compared to controls (7W WT APP751 CHO cells [2]) | concentration of Aβ1-42 compared to controls (7W WT APP751 CHO cells [2]) | concentration of total β-amyloid (Aβ1-40+Aβ1-42) compared to controls (7W WT APP751 CHO cells [2])

N#Cc1c(-c2cccs2)cc(-c2ccccc2)[nH]c1=O [HTS 10306, 2-oxo-6-phenyl-4-(2-thienyl)-1,2-dihydro-3-pyridinecarbonitrile]
significantly decreased: concentration of Aβ1-40 compared to controls (7W WT APP751 CHO cells [2]) | concentration of Aβ1-42 compared to controls (7W WT APP751 CHO cells [2]) | concentration of total β-amyloid (Aβ1-40+Aβ1-42) compared to controls (7W WT APP751 CHO cells [2])

NC(=O)Nc1sc(-c2ccc(F)cc2)cc1C(N)=O [IKK-2 Inhibitor IV]
significantly decreased: concentration of Aβ1-40 compared to controls (7W WT APP751 CHO cells [1]; 500 nM) | concentration of Aβ1-42 compared to controls (7W WT APP751 CHO cells [1]; 500 nM) | concentration of total β-amyloid compared to controls (7W WT APP751 CHO cells [1]; 500 nM) | concentration of Aβ1-40 compared to controls (7W WT APP751 CHO cells [1]; 5 μM) | concentration of Aβ1-42 compared to controls (7W WT APP751 CHO cells [1]; 5 μM) | concentration of total β-amyloid compared to controls (7W WT APP751 CHO cells [1]; 5 μM)

CCOC(=O)C1=C(C)NC(C)=C(C(=O)OCC)C1c1ccc(Br)cc1 [JFD 01209, diethyl 4-(4-bromophenyl)-2,6-dimethyl-1,4-dihydropyridine-3,5-dicarboxylate]
significantly decreased: concentration of Aβ1-40 compared to controls (7W WT APP751 CHO cells [2]) | concentration of Aβ1-42 compared to controls (7W WT APP751 CHO cells [2]) | concentration of total β-amyloid (Aβ1-40+Aβ1-42) compared to controls (7W WT APP751 CHO cells [2])

CCOC(=O)C1=C(C)NC(C)=C(C(=O)OCC)C1c1ccc([N+](=O)[O-])cc1 [JFD 03266, diethyl 2,6-dimethyl-4-(4-nitrophenyl)-1,4-dihydropyridine-3,5-dicarboxylate]
significantly decreased: concentration of Aβ1-40 compared to controls (7W WT APP751 CHO cells [2]) | concentration of total β-amyloid (Aβ1-40+Aβ1-42) compared to controls (7W WT APP751 CHO cells [2])

CCOC(=O)C1=C(C)NC(C)=C(C(=O)OCC)C1c1ccc(C)cc1 [JFD 03282, diethyl 2,6-dimethyl-4-(4-methylphenyl)-1,4-dihydropyridine-3,5-dicarboxylate]
significantly decreased: concentration of Aβ1-40 compared to controls (7W WT APP751 CHO cells [2]) | concentration of Aβ1-42 compared to controls (7W WT APP751 CHO cells [2]) | concentration of total β-amyloid (Aβ1-40+Aβ1-42) compared to controls (7W WT APP751 CHO cells [2])

CC1=C(C#N)C(c2ccc(Cl)c(Cl)c2)C(C#N)=C(C)N1 [JFD 03292, 4-(3,4-dichlorophenyl)-2,6-dimethyl-1,4-dihydropyridine-3,5-dicarbonitrile]
significantly decreased: concentration of Aβ1-40 compared to controls (7W WT APP751 CHO cells [2]) | concentration of total β-amyloid (Aβ1-40+Aβ1-42) compared to controls (7W WT APP751 CHO cells [2])

COC(=O)C1=C(C)NC(C)=C(C(=O)OCCCN2CCC(c3ccccc3)(c3ccccc3)CC2)[C@@H]1c1cccc([N+](=O)[O-])c1.Cl [R-niguldipine]
significantly decreased: concentration of Aβ1-40 compared to controls (7W WT APP751 CHO cells [1]; 1 μM) | concentration of Aβ1-42 compared to controls (7W WT APP751 CHO cells [1]; 1 μM) | concentration of total β-amyloid compared to controls (7W WT APP751 CHO cells [1]; 1 μM) | concentration of Aβ1-40 compared to controls (7W WT APP751 CHO cells [1]; 5 μM) | concentration of Aβ1-42 compared to controls (7W WT APP751 CHO cells [1]; 5 μM) | concentration of total β-amyloid compared to controls (7W WT APP751 CHO cells [1]; 5 μM) | concentration of Aβ1-40 compared to controls (7W WT APP751 CHO cells [1]; 30 μM) | concentration of Aβ1-42 compared to controls (7W WT APP751 CHO cells [1]; 30 μM) | concentration of total β-amyloid compared to controls (7W WT APP751 CHO cells [1]; 30 μM)

C[C@@H]1CC[C@H]2[C@@H](C)C(=O)O[C@@H]3O[C@@]4(C)CC[C@@H]1[C@]32OO4 [artemisinin]
significantly decreased: concentration of Aβ1-40 compared to controls (7W WT APP751 CHO cells [1]; 1 μM) | concentration of Aβ1-42 compared to controls (7W WT APP751 CHO cells [1]; 1 μM) | concentration of total β-amyloid compared to controls (7W WT APP751 CHO cells [1]; 1 μM) | concentration of Aβ1-40 compared to controls (7W WT APP751 CHO cells [1]; 30 μM) | concentration of Aβ1-42 compared to controls (7W WT APP751 CHO cells [1]; 30 μM) | concentration of total β-amyloid compared to controls (7W WT APP751 CHO cells [1]; 30 μM)

CC1=C(O)C(=O)C=C2C1=CC=C1[C@@]2(C)CC[C@@]2(C)[C@@H]3C[C@](C)(C(=O)O)CC[C@]3(C)CC[C@]12C [celastrol]
significantly decreased: concentration of Aβ1-40 compared to controls (7W WT APP751 CHO cells [1]; 500 nM) | concentration of Aβ1-42 compared to controls (7W WT APP751 CHO cells [1]; 500 nM) | concentration of total β-amyloid compared to controls (7W WT APP751 CHO cells [1]; 500 nM) | concentration of Aβ1-40 compared to controls (7W WT APP751 CHO cells [1]; 5 μM) | concentration of Aβ1-42 compared to controls (7W WT APP751 CHO cells [1]; 5 μM) | concentration of total β-amyloid compared to controls (7W WT APP751 CHO cells [1]; 5 μM)

C=C1C(=O)O[C@@H]2C[C@@]3(C)CCCC(=C)[C@@H]3C[C@H]12 [isohelenin]
significantly decreased: concentration of Aβ1-40 compared to controls (7W WT APP751 CHO cells [1]; 5 μM) | concentration of Aβ1-42 compared to controls (7W WT APP751 CHO cells [1]; 5 μM) | concentration of total β-amyloid compared to controls (7W WT APP751 CHO cells [1]; 5 μM) | concentration of Aβ1-40 compared to controls (7W WT APP751 CHO cells [1]; 10 μM) | concentration of Aβ1-42 compared to controls (7W WT APP751 CHO cells [1]; 10 μM) | concentration of total β-amyloid compared to controls (7W WT APP751 CHO cells [1]; 10 μM)

C=C1C(=O)[C@@]23[C@H](O)C[C@@H]4C(C)(C)CC[C@H](O)[C@@]4(CO)[C@@H]2CC[C@@H]1[C@H]3O [kamebakaurin]
significantly decreased: concentration of Aβ1-40 compared to controls (7W WT APP751 CHO cells [1]; 10 μM) | concentration of Aβ1-42 compared to controls (7W WT APP751 CHO cells [1]; 10 μM) | concentration of total β-amyloid compared to controls (7W WT APP751 CHO cells [1]; 10 μM) | concentration of Aβ1-40 compared to controls (7W WT APP751 CHO cells [1]; 30 μM) | concentration of Aβ1-42 compared to controls (7W WT APP751 CHO cells [1]; 30 μM) | concentration of total β-amyloid compared to controls (7W WT APP751 CHO cells [1]; 30 μM)
